In ChEMBL document CHEMBL1909046, “DrugMatrix in vitro pharmacology data”:

Key:
[1] = target: T1, Alpha-1A adrenergic receptor (Rattus norvegicus, UniProt P43140); test: DRUGMATRIX: Alpha-1A adrenergic receptor radioligand binding (ligand: prazosin); assay type: cell membranes, Wistar, Submaxillary gland, Membrane; conditions: Not Active = under 50% inhibition at 10 µM
T1 sequence (P43140 whole entry): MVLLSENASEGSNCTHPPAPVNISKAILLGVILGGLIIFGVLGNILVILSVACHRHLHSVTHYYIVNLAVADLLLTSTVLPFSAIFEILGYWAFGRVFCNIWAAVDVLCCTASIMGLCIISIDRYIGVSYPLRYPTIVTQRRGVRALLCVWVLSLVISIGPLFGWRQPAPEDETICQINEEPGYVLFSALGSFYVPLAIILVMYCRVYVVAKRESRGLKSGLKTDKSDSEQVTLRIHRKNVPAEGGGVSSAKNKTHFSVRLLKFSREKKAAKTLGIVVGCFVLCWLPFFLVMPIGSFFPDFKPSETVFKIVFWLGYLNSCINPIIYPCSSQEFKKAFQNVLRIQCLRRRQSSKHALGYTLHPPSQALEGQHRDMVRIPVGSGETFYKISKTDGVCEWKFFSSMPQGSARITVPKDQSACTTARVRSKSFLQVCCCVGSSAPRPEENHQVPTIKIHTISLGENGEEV

[2] = target: Delta-type opioid receptor (Homo sapiens, UniProt P41143); assay type: cell membranes, HEK293, Membrane; conditions: hek293; note: in other assays of this panel Not Active means under 50% inhibition at 10 µM
[3] = target: Sigma non-opioid intracellular receptor 1 (Homo sapiens, UniProt Q99720); test: DRUGMATRIX: Sigma1 radioligand binding (ligand: [3H] Haloperidol); assay type: cell membranes, Jurkat, Membrane; conditions: jurkat; Not Active = under 50% inhibition at 10 µM
[4] = DRUGMATRIX: Potassium Channel [KATP] radioligand binding (ligand: [3H] Glyburide); assay type: cell membranes, Membrane; conditions: hit-t15; Not Active = under 50% inhibition at 10 µM
Cytochrome P450 2D6 = Cytochrome P450 2D6 (Homo sapiens, UniProt P10635); conditions: bti-tn-5b1-4; note: in other assays of this panel Not Active means under 50% inhibition at 10 µM
[5] = target: Vascular endothelial growth factor receptor 1 (Homo sapiens, UniProt P17948); assay type: cell-based; conditions: huvec; note: in other assays of this panel Not Active means under 50% inhibition at 10 µM
[6] = target: T2, Muscarinic acetylcholine receptor M4 (Homo sapiens, UniProt P08173); assay type: cell membranes, CHO-K1, Membrane; conditions: cho-k1; note: in other assays of this panel Not Active means under 50% inhibition at 10 µM
T2 sequence (P08173 whole entry): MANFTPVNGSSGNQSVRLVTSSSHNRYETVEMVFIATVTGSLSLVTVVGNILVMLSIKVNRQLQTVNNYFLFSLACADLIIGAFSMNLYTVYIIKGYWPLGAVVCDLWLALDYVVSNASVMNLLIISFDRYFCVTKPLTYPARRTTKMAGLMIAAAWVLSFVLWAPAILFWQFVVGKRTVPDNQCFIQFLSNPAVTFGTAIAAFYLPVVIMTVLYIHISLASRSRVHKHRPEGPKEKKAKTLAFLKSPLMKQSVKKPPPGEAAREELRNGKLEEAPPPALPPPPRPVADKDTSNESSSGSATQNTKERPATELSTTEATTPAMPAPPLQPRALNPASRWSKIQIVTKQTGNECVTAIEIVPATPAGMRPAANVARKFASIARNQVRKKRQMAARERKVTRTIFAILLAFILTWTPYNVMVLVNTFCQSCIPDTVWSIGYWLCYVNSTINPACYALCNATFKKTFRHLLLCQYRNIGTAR

Sequence of Cytochrome P450 2D6 (P10635 whole entry): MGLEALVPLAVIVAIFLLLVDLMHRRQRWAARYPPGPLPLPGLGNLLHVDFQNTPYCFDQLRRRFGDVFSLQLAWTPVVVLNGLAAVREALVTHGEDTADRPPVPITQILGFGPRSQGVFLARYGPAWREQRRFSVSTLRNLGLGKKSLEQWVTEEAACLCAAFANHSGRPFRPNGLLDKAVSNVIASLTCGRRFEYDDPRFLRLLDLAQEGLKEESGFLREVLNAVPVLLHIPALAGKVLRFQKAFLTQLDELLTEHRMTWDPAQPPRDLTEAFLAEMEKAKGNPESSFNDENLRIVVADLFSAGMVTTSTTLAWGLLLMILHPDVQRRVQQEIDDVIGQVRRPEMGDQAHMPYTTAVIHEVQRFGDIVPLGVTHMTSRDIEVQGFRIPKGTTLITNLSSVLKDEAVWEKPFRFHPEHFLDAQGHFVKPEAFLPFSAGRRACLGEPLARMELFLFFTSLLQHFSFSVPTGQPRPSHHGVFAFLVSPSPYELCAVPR
Sequence of Sigma non-opioid intracellular receptor 1 (Q99720 whole entry): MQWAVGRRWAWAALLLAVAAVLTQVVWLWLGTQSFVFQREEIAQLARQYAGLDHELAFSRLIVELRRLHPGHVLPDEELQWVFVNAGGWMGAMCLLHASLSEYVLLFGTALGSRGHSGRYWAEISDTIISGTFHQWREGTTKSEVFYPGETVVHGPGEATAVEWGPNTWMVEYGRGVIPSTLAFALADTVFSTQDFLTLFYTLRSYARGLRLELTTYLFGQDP
Sequence of Vascular endothelial growth factor receptor 1 (P17948 whole entry): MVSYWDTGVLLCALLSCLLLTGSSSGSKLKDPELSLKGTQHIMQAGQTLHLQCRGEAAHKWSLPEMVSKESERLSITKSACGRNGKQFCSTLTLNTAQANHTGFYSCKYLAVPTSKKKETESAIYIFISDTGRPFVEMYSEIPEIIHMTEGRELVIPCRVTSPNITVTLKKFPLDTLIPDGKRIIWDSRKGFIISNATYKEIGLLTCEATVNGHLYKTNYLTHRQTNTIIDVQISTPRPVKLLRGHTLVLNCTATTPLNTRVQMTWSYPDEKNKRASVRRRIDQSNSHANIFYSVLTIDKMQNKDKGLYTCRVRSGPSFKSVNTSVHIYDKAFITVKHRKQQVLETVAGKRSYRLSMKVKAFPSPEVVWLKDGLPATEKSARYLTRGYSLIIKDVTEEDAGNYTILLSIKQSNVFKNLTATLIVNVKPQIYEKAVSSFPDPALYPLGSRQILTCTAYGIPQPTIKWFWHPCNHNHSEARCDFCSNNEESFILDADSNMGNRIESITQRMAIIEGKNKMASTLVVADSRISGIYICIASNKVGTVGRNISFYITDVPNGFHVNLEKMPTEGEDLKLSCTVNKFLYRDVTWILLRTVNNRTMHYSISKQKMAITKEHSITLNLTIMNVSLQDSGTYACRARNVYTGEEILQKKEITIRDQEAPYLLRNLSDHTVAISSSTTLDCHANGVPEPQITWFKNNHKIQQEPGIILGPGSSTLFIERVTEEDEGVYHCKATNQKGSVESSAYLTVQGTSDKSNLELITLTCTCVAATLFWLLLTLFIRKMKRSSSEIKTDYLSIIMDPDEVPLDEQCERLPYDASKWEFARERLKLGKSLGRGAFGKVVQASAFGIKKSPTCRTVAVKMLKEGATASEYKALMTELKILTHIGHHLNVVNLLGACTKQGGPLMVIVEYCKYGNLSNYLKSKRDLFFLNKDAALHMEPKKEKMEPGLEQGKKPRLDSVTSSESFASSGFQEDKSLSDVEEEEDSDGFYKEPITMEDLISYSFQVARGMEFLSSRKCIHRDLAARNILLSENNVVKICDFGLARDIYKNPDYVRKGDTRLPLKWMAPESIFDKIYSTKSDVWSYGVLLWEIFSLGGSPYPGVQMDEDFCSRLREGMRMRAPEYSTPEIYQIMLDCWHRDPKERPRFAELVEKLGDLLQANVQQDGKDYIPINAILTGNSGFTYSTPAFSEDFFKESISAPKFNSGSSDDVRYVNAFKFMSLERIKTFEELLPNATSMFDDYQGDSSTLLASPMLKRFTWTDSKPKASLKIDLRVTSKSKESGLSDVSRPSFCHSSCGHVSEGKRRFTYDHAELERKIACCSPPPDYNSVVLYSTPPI
Sequence of Delta-type opioid receptor (P41143 whole entry): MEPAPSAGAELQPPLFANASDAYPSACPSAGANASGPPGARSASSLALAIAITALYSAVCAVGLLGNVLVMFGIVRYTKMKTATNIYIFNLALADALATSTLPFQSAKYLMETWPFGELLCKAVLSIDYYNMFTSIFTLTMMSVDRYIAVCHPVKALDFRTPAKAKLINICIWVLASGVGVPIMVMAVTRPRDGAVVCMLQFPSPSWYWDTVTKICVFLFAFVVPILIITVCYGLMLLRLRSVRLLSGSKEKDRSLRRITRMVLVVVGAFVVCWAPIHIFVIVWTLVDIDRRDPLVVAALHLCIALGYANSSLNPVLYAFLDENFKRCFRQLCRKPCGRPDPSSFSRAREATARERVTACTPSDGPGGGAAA

CC(O)CO (stereo unspecified) [PROPYLENE GLYCOL]
Not Active: IC50 [1] | IC50 [2] | IC50 [3] | IC50 [4] | Ki [4] | IC50 (Cytochrome P450 2D6) | Ki (Cytochrome P450 2D6) | IC50 [5] | IC50 [6]

CADMIUM ACETATE
Not Active: IC50 [1] | Ki [1] | IC50 [2] | Ki [2] | IC50 [3] | Ki [3] | IC50 [4] | Ki [4] | IC50 (Cytochrome P450 2D6) | Ki (Cytochrome P450 2D6) | IC50 [5] | Ki [5] | IC50 [6] | Ki [6]

LEAD (II) ACETATE
Not Active: IC50 [1] | Ki [1] | IC50 [2] | Ki [2] | IC50 [3] | Ki [3] | IC50 [4] | Ki [4] | IC50 (Cytochrome P450 2D6) | Ki (Cytochrome P450 2D6) | IC50 [5] | Ki [5] | IC50 [6] | Ki [6]

LIPOPOLYSACCHARIDE E. COLI O55:B5
Not Active: IC50 [1] | Ki [1] | IC50 [2] | Ki [2] | IC50 [3] | Ki [3] | IC50 [4] | Ki [4] | IC50 (Cytochrome P450 2D6) | Ki (Cytochrome P450 2D6) | IC50 [5] | Ki [5] | IC50 [6] | Ki [6]
